Starred links: 1 amine or outer side, 2 acyl side, 3 side chain; linkers in the order of their positions; H or OH if unused. Positions of bridges follow the written chain, without caps; N, C: chain ends. Non-standard residues stand in square brackets, D forms with d. Residues, ends and D or L forms follow the SMILES beside them. Chains are numbered I, II in the order given. N(4-MeOBn)Gly = COc1ccc(CNCC(=O)O)cc1; N((CH2)3OiPr)Gly = CC(C)OCCCNCC(=O)O; X1 = CC(c1ccccc1)N(CC(=O)[*:2])[*:1]; NAllylGly = C=CCNCC(=O)O; Nleu = CC(C)CNCC(=O)O; Nme = COCCNCC(=O)O

The subject of the experiment is SARS-CoV-2 D614G pseudovirus. The format is cell-based, human H1299 cells.

On to `C=CCN(CC(=O)N(CC(=O)NC(CCCCN)C(=O)NC(CCSC)C(=O)NCCCCC(NC(=O)C(CCSC)NC(=O)C(CCCCN)NC(=O)CN(C(=O)CN(CC=C)C(=O)CN(Cc1ccc(OC)cc1)C(=O)CN(C(=O)CN(CCOC)C(=O)CNCC(C)C)C(C)c1ccccc1)C(C)c1ccccc1)C(N)=O)C(C)c1ccccc1)C(=O)CN(Cc1ccc(OC)cc1)C(=O)CN(C(=O)CN(CCOC)C(=O)CNCC(C)C)C(C)c1ccccc1` (centres unmarked) [ACE2P1D1] (I: H-[Nleu][Nme][X1][N(4-MeOBn)Gly][NAllylGly][X1]KMK-NH2 / II: H-[Nleu][Nme][X1][N(4-MeOBn)Gly][NAllylGly][X1]KM; amide I:9-II:C; configuration not given here), for which the “SARS-CoV-2 mutant pseudovirus infection” value is on record as “effective in inhibiting SARS-CoV-2 mutant pseudovirus infection”.
With `COCCN(CC(=O)NC(CCCCN)C(=O)NC(CCSC)C(=O)NCCCCC(NC(=O)C(CCSC)NC(=O)C(CCCCN)NC(=O)CN(CCOC)C(=O)CN(CC(C)C)C(=O)CN(CC(C)C)C(=O)CN(CCCOC(C)C)C(=O)CN(Cc1ccc(OC)cc1)C(=O)CNCc1ccc(OC)cc1)C(N)=O)C(=O)CN(CC(C)C)C(=O)CN(CC(C)C)C(=O)CN(CCCOC(C)C)C(=O)CN(Cc1ccc(OC)cc1)C(=O)CNCc1ccc(OC)cc1` (centres unmarked) [ACE2P2D1] (I: H-[N(4-MeOBn)Gly][N(4-MeOBn)Gly][N((CH2)3OiPr)Gly][Nleu][Nleu][Nme]KMK-NH2 / II: H-[N(4-MeOBn)Gly][N(4-MeOBn)Gly][N((CH2)3OiPr)Gly][Nleu][Nleu][Nme]KM; amide I:9-II:C; configuration not given here), the “SARS-CoV-2 mutant pseudovirus infection” value is “effective in inhibiting SARS-CoV-2 mutant pseudovirus infection”.

(Values after US20230331777A1, “NOVEL PEPTOID COMPOUNDS THAT BIND TO CELL RECEPTOR ACE2 AND PREVENT VIRUS ENTRY INTO CELLS” (priority 2020, published 2023).)
